Reference: patent US8748626B2, “Oxazole and thiazole compounds as KSP inhibitors” (Novartis AG, priority 2010, dated 2014)

Tests used:
[1] = target: motor domain of human KSP (Eg 5, KNSL1) (Homo sapiens (Human), UniProt P52732); assay: Assay for determining KSP activity (microtubule-stimulated ATPase, Biomol Green); assay type: biochemical; details: KSP motor domain 45 nM, microtubules 35 μg/mL, ATP, 1 hour RT, absorbance 630 nm; read-out: Biological Activity IC50
Text: This example provides a representative in vitro assay for determining KSP activity in vitro. Purified microtubules obtained from bovine brain were purchased from Cytoskeleton Inc. (Denver, Colo., USA). The motor domain of human KSP (Eg 5, KNSL1) was cloned, expressed, and purified to greater than 95% homogeneity. Biomol Green was purchased from Affinity Research Products Ltd. (Matford Court, Exeter, Devon, United Kingdom). Microtubules and KSP motor protein (i.e., the KSP motor domain) were diluted in assay buffer (20 mM Tris-HCl (pH 7.5), 1 mM MgCl2, 10 mM DTT and 0.25 mg/mL BSA) to a final concentration of 35 μg/mL microtubules and 45 nM KSP. The microtubule/KSP mixture was then pre-incubated at 37° C. for 10 min to promote the binding of KSP to microtubules.
To each well of the testing plate (384-well plate) containing 1.25 μL of inhibitor or test compound in DMSO (or DMSO only in the case of controls) were added 25 μL of ATP solution (ATP diluted to a concentration of 300 μM in assay buffer) and 25 μL of the above-described microtubule/KSP solution. The plates were incubated at RT for 1 hour. Following incubation, 65 μL of Biomol Green (a malachite green-based dye that detects the release of inorganic phosphate) was added to each well. The plates were incubated for an additional 5-10 minutes then the absorbance at 630 nm was determined using a Victor II plate reader. The amount of absorbance at 630 nm corresponded to the amount of KSP activity in the samples. The IC50 of each inhibitor or test compound was then determined based on the decrease in absorbance at 630 nm at each concentration, via nonlinear regression using either XLFit for Excel or Prism data analysis software by GraphPad Software Inc.

tumor cell lines = assay: Inhibition of cellular proliferation in tumor cell lines (CellTiter-Glo); assay type: cell-based; details: 50% growth inhibition at 72 hours of continuous compound exposure; cell line not specified; read-out: Biological Activity GI50
Method: Cells are plated in 96-well plates at densities of about 500 cells per well of a 96-well plate and are allowed to grow for 24 hours. The cells are then treated with various concentrations of compounds for 72 hours. Then, 100 μl of CellTiter-Glo® solution are added. The CellTiter-Glo® assay measures the amount of ATP present in the well after lysing the cells; the ATP released is used in an enzymatic reaction including the enzyme Luciferease and its substrate Luciferin. The amount of light emitted is proportional to the amount of ATP, which in turn is proportional to the number of live cells in the well. (see Promega product catalog #G7573, CellTiter-Glo® Luminescent Cell Viability Assay). The cells are then incubated in the dark for 30 minutes. The amount of luminescence is determined for each well using a Wallac Trilux plate reader, which correlates with the number of cells per well. The number of viable cells in the wells that receive only DMSO (0.5%) serve as an indication of 0°/a inhibition, while wells without cells serve as 100% inhibition of cell growth. The compound concentration that results in a 50% growth inhibition (GI50) is determined graphically from sigmoidal dose-response curves of log-transformed dose values versus cell counts (percent of control) at 72 hours of continuous compound exposure.
The cell lines used are listed below.
The cell proliferation assay is performed as described above. • Cancer Cell Lines • Colo 205—colon carcinoma • RPMI 1640+10% FBS+1% L-glutamine+1% P/S+1% NaPyr.+Hepes+4.5 g/L Glucose+1% NaBicarb. • MDA 435—breast cancer—high met • EMEM+10% FBS+1% P/S+1% L-Glutamine+1% NEAA+1% NaPyr+1% vitamins • HCT-15 and HCT116—colon carcinoma • RPMI 1640+10% FBS+1% L-glutamine+1% P/S • Drug Resistant Cell Lines • KB3.1—[…] epidermal carcinoma; parental cell line • Iscove's+10% FBS+1% L-glutamine+1% P/S • KBV1—p-glycoprotein associated multi-drug resistant cell line • RPMI 1640+10% FBS+1% L-glutamine+1% P/S+0.2 ug/mL Vinblastine • KB85—p-glycoprotein associated multi-drug resistant cell line • DMEM+10% FBS+1% L-glutamine+1% P/S+10 ng/mL Colchicine

Sequence of motor domain of human KSP (Eg 5, KNSL1) (P52732 18-359): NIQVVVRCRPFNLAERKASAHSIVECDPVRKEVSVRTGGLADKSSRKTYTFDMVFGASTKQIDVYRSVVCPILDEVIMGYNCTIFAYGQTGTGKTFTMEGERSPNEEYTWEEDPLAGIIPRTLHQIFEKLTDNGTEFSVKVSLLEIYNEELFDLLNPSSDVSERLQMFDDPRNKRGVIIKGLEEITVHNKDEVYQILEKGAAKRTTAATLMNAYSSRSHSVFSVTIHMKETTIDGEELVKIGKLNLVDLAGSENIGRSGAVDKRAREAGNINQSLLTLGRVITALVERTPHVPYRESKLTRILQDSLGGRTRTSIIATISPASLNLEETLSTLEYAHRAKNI

Row | Structure (SMILES) | IC50 [1] | GI50 (tumor cell lines)
1 | C[C@H](O)C(=O)N(C[C@@H]1CNC[C@@H]1F)[C@@H](c1nc(-c2cc(F)ccc2F)sc1Cc1ccccc1)C(C)(C)C [Example 1, (S)-N-((R)-1-(5-benzyl-2-(2,5-difluorophenyl)thiazol-4-yl)-2,2-dimethylpropyl)-N-(((3S,4R)-4-fluoropyrrolidin-3-yl)methyl)-2-hydroxypropanamide] | 0.84 nM | 0.18 nM
2 | CC(C)(C)[C@H](c1nc(-c2cc(F)ccc2F)sc1Cc1ccccc1)N(C[C@@H]1CNC[C@@H]1F)C(=O)[C@@H]1CCCO1 [Example 2, (S)-N-((R)-1-(5-benzyl-2-(2,5-difluorophenyl)thiazol-4-yl)-2,2-dimethylpropyl)-N-(((3S,4R)-4-fluoropyrrolidin-3-yl)methyl)tetrahydrofuran-2-carboxamide] | 10 nM | 1.4 nM
3 | C[C@H](O)C(=O)N(CC[C@H](N)CF)[C@@H](c1nc(-c2cc(F)ccc2F)sc1Cc1ccccc1)C(C)(C)C [Example 3, (S)-N-((S)-3-amino-4-fluorobutyl)-N-((R)-1-(5-benzyl-2-(2,5-difluorophenyl)thiazol-4-yl)-2,2-dimethylpropyl)-2-hydroxypropanamide] | 2.6 nM | 2.2 nM
4 | C[C@H](O)C(=O)N(C[C@@H]1CNC[C@@H]1F)[C@@H](c1nc(-c2cc(F)ccc2F)oc1Cc1ccccc1)C(C)(C)C [Example 4, (S)-N-((R)-1-(5-benzyl-2-(2,5-difluorophenyl)oxazol-4-yl)-2,2-dimethylpropyl)-N-(((3S,4R)-4-fluoropyrrolidin-3-yl)methyl)-2-hydroxypropanamide] | 7.18 nM | 3.5 nM
5 | C[C@H](O)C(=O)N(CC[C@H](N)CF)[C@@H](c1nc(-c2cc(F)ccc2F)oc1Cc1ccccc1)C(C)(C)C [Example 5, (S)-N-((S)-3-amino-4-fluorobutyl)-N-((R)-1-(5-benzyl-2-(2,5-difluorophenyl)oxazol-4-yl)-2,2-dimethylpropyl)-2-hydroxypropanamide] | 2.54 nM | 4.82 nM
6 | C[C@H](O)C(=O)N(C[C@@H]1CNC[C@@H]1F)[C@H](c1nc(-c2cc(F)ccc2F)oc1Cc1ccccc1)C(C)(C)C [Example 6, (S)-N-((S)-1-(5-benzyl-2-(2,5-difluorophenyl)oxazol-4-yl)-2,2-dimethylpropyl)-N-(((3S,4R)-4-fluoropyrrolidin-3-yl)methyl)-2-hydroxypropanamide] | 1000 nM | 
7 | C[C@H](O)C(=O)N(CC[C@H](N)CF)[C@H](c1nc(-c2cc(F)ccc2F)oc1Cc1ccccc1)C(C)(C)C [Example 7, (S)-N-((S)-3-amino-4-fluorobutyl)-N-((S)-1-(5-benzyl-2-(2,5-difluorophenyl)oxazol-4-yl)-2,2-dimethylpropyl)-2-hydroxypropanamide] | 631 nM | 
8 | C[C@H](O)C(=O)N(CC[C@H](N)CF)[C@H](c1nc(-c2cc(F)ccc2F)sc1Cc1ccccc1)C(C)(C)C [Example 8, (S)-N-((S)-3-amino-4-fluorobutyl)-N-((S)-1-(5-benzyl-2-(2,5-difluorophenyl)thiazol-4-yl)-2,2-dimethylpropyl)-2-hydroxypropanamide] |  | 944 nM
